Data set [1] concerns experimental auto-immune encephalomyelitis (EAE) development in mice. To be noted: Example 3; for mice died in group: 16 mice per group; for disease onset: peptide 30 μg/Alum s.c. days 4, 9, 14, 19, BG-12 100 mg/kg p.o. BID days 0 to 27; for disease onset / AUC (area under the curve) of EAE scores / MMS (mean maximal score) / end score (clinical EAE score 0-5): vs negative control. An excerpt: Example 3: Effect of the therapeutic administration of an immunogenic peptide comprising a MOG35-55 MHCII T cell epitope linked to a KCRC (SEQ ID NO: 65) or KCRPYC (SEQ ID NO: 84) oxidoreductase motif in combination with dimethyl fumarate (BG-12, […]™) on experimental auto-immune encephalomyelitis (EAE) development in mice.
The study used a total of 128 female C57BL/6 mice (Taconic Biosciences, 9 weeks old on Day 0). Mice were acclimated for 7 days prior to the first injection. Mice were assigned to groups in a balanced manner to achieve similar average weight across the groups at the start of the study.
Treatment 1 was administered once on each of the days indicated in Table 4, s.c., at a volume of 0.05 mL/site, each mouse receiving injection at two sites, for a total of 0.1 mL/mouse/dosing day. IMCY-0189 (CXXC oxidoreductase motif, IMCY-0453 (CXC oxidoreductase motif) or IMCY-0455 (CXXXC oxidoreductase motif) peptide total dose was 30 μg per administration.
(§1) BG-12 was dosed at 100 mg/kg.
(§2) All dosing were done at the same time (+/−1 hour) each dosing day. For the BID groups there were no less than 10 and no more than 14 hours between doses.
(SEQ ID NO: 266), comprising an oxidoreductase motif KCRC (SEQ ID NO: 65), a linker GW, a murine Myelin Oligodendrocyte Glycoprotein (MOG35-55) MHCII T cell epitope […] (SEQ ID NO: 169) and a flanking sequence HLYR (SEQ ID NO: 186) (Smart Bioscience) was solubilized immediately before use. Lyophilized IMCY-0453 was thawed at room temperature for 10 minutes, resuspended in Na Acetate buffer 50 mM NaCl 0.9% pH 5.4 and incubated at room temperature for 10 minutes. Reconstituted peptide was then mixed with Imject™ Alum Adjuvant before injection.
(SEQ ID NO: 268), comprising an oxidoreductase motif KCRPYC (SEQ ID NO: 84), a linker GW, a murine Myelin Oligodendrocyte Glycoprotein (MOG35-55) MHCII T cell epitope […] (SEQ ID NO: 169) and a flanking sequence HLYR (SEQ ID NO: 186) (Smart Bioscience) was solubilized immediately before use. Lyophilized IMCY-0455 was thawed at room temperature for 10 minutes, resuspended in Na Acetate buffer 50 mM NaCl 0.9% pH 5.4 and incubated at room temperature for 10 minutes. Reconstituted peptide was then mixed with Imject™ Alum Adjuvant before injection.
(§3) Treatment 2 was prepared as described in example 2.
EAE induction, scoring and statistical analysis were performed as described in example
(§4) EAE development was evaluated by comparing clinical EAE readouts for all groups to the negative control (Saline/Vehicle) group.

Data set [2] has the same test system. In words: Example 3: serum neurofilament light (NF-L) levels in EAE mice. In kind it is in vivo, female C57BL/6 mice. To be noted: Day 28 serum, vs negative control. As to the method:
On Day 28, blood was collected from all mice into gel clot activator tubes and allowed to clot at room temperature for ˜30 minutes. Blood is then centrifuged at ˜10000 g for 5 minutes. Serum was transferred into Eppendorf tubes and stored at −80° C. until shipment to Quanterix™. Serum Neurofilament light (NF-L) protein levels were quantified using Simoa® NF-light Advantage kit as described in example 1.

For data set [3] the test system is unchanged. To be noted: Example 2, 16 mice per group.
Source text: Example 2: Effect of the therapeutic administration of an immunogenic peptide comprising a MOG35-55 MHCII T cell epitope linked or not to an HCPYC oxidoreductase motif in combination with dimethyl fumarate (BG-12, […]™) on experimental auto-immune encephalomyelitis (EAE) development in mice.
The study used a total of 96 female C57BL/6 mice (Taconic Biosciences, 10 weeks old on Day 0). Mice were acclimated for 14 days prior to the first injection. Mice were assigned to groups in a balanced manner to achieve similar average weight across the groups at the start of the study.
Treatment 1 was administered once on each of the days indicated in Table 3, s.c., at a volume of 0.05 mL/site, each mouse receiving injection at two sites, for a total of 0.1 mL/mouse/dosing day. IMCY-0189 or MOG35-55 peptide total dose was 30 μg per administration.
as §1, §2
Lyophilized mouse MOG35-55 peptide with the sequence […] (SEQ ID NO:205), comprising the mouse Myelin Oligodendrocyte Glycoprotein (MOG35-55) MHCII T cell epitope […] (SEQ ID NO:169), was solubilized immediately before use. Lyophilized MOG35-55 peptide was thawed at room temperature for 10 minutes, resuspended in Na Acetate buffer 50 mM NaCl 0.9% pH 5.4 and incubated at room temperature for 10 minutes. Reconstituted MOG35-55 peptide was then mixed with Imject™ Alum Adjuvant before injection. Note that the positions 35 to 55 refer to the mature protein, i.e. after cleavage of the signal peptide (AA 1-29), defined by SEQ ID NO: 208. In the full-length amino acid sequence of MOG (SEQ ID NO: 184), said peptide would be at positions 64-84.
Lyophilized IMCY-0189 was thawed at room temperature for 10 minutes, resuspended in Na Acetate buffer 50 mM NaCl 0.9% pH 5.4 and incubated at room temperature for 10 minutes. Reconstituted peptide was then mixed with Imject™ Alum Adjuvant before injection.
For Treatment 2, vehicle was 0.5% HPMC, 0.2% Tween 20, and 50 mM citrate buffer at pH 4. BG-12 (Santa Cruz Biotechnology, sc-239774) and was prepared at least every 2 weeks. At each preparation the required amount of BG-12 was weighed out into a mortar and triturated with a pestle. Vehicle was then added in small increments and mixed until the final volume was reached. The material was then vortexed and sonicated in a water bath until a homogeneous suspension was obtained. Formulated BG-12 was stored at 4° C., stirring continuously.
EAE induction, scoring and statistical analysis were performed as described in example 1.
as §4

Data set [4] has the same test system. To be noted: Example 4; 16 mice per group.
Source text: Example 4: Effect of the therapeutic administration of an immunogenic peptide comprising a human MOG201-212 MHCII T cell epitope linked to a KHCPYC oxidoreductase motif in combination with dimethyl fumarate (BG-12, […]™) on experimental auto-immune encephalomyelitis (EAE) development in mice.
The study used a total of 96 female C57BL/6 mice (Taconic Biosciences, 9 weeks old on Day 0). Mice were acclimated for 7 days prior to the first injection. Mice were assigned to groups in a balanced manner to achieve similar average weight across the groups at the start of the study.
Treatment 1 was administered once on each of the days indicated in Table 5, s.c., at a volume of 0.05 mL/site, each mouse receiving injection at two sites, for a total of 0.1 mL/mouse/dosing day. IMCY-0189 or P4 peptide total dose was 30 μg per administration.
as §1, §2
Lyophilized immunogenic peptide P4 with the sequence […] (SEQ ID NO: 176), comprising an oxidoreductase motif KHCPYC (SEQ ID NO: 77), a linker VRY, a human Myelin Oligodendrocyte Glycoprotein (MOG201-212) MHCII T cell epitope […] (SEQ ID NO: 165) and a flanking sequence TLFKK (SEQ ID NO: 267) (Smart Bioscience) was solubilized immediately before use. Lyophilized P4 was thawed at room temperature for 10 minutes, resuspended in Na Acetate buffer 50 mM NaCl 0.9% pH 5.4 and incubated at room temperature for 10 minutes. Reconstituted peptide was then mixed with Imject™ Alum Adjuvant before injection.
as §3
EAE induction, scoring and statistical analysis were performed as described in example 2.
as §4

Read-outs that look alike come from different tables or passages of the source. No end group written: not given here.

As for KCRCGWYRSPFSRVVHLYR [IMCY-0453], in data set [1], the “mice died in group” value is 1 mice, the disease onset entry is “statistically significantly improved”, the “AUC (area under the curve) of EAE scores” value is recorded as “statistically significantly improved” and the “MMS (mean maximal score)” value is on record as “statistically significantly improved”. Besides, in data set [1], the “end score (clinical EAE score 0-5)” value is listed as “statistically significantly improved”. Moreover, the “serum NF-L levels” value in data set [2] was “statistically significant reduced NF-L levels”.
For the compound KCRPYCGWYRSPFSRVVHLYR [IMCY-0455], in data set [1], the “mice died in group” value is reported as 1 mice, the disease onset result is given as “statistically significantly improved”, the “AUC (area under the curve) of EAE scores” value is “statistically significantly improved” and the “MMS (mean maximal score)” value is “statistically significantly improved”. For the same compound, in data set [1], the “end score (clinical EAE score 0-5)” value is reported as “statistically significantly improved”. In data set [2], the “serum NF-L levels” value was “statistically significant reduced NF-L levels”.
Take “MEVGWYRSPFSRVVHLYRNGK [MOG35-55 peptide]”: the results for the “mice died in group” value in data set [3] and in data set [3] (listed as MOG35-55/Vehicle) were “No mice died” and 2 mice, respectively.
For the compound `CC[C@H](C)[C@H](NC(=O)[C@H](CCCCN)NC(=O)[C@H](Cc1c[nH]c2ccccc12)NC(=O)[C@H](CO)NC(=O)[C@@H]1CCCN1C(=O)[C@@H](NC(=O)[C@H](CCCNC(=N)N)NC(=O)[C@H](CC(C)C)NC(=O)[C@H](Cc1ccccc1)NC(=O)[C@H](Cc1ccc(O)cc1)NC(=O)[C@H](CCCNC(=N)N)NC(=O)[C@@H](NC(=O)[C@H](CS)NC(=O)[C@H](Cc1ccc(O)cc1)NC(=O)[C@@H]1CCCN1C(=O)[C@H](CS)NC(=O)[C@H](Cc1c[nH]cn1)NC(=O)[C@@H](N)CCCCN)C(C)C)C(C)C)C(=O)N[C@H](C(=O)N[C@@H](CC(C)C)C(=O)N[C@@H](Cc1ccccc1)C(=O)N[C@@H](CCCCN)C(=O)N[C@@H](CCCCN)C(=O)O)[C@@H](C)O` [P4], the “mice died in group” value in data set [4] is given as “No mice died”.

The values above are taken from US20230172894A1, “COMBINATION TREATMENT FOR FUMARATE-RELATED DISEASES” (IMCYSE SA, priority 2020, published 2023).
